Test results reported in ChEMBL document CHEMBL1201862, “PubChem BioAssay data set” (2004).
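Cells were grown in 96-well plates and exposed to each compound for 48 hours at five concentrations; endpoints were interpolated linearly between bracketing concentrations, or set to the highest concentration if not reached. At the GI50, growth is halved.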 Activity calls are given as the source filed them. No stated cut-off is given here; in the data, active = GI50 up to about 1.1 µM and inactive = higher.

Assays:
Assay in all cases: NCI-60 cell line screen, 48 h
OVCAR-3 = system: OVCAR-3
OVCAR-8 = system: OVCAR-8
CAKI-1 = system: CAKI-1
EKVX = system: EKVX
786-0 = system: 786-0
K562 = system: K562
OVCAR-5 = system: OVCAR-5
LOX IMVI = system: LOX IMVI
UO-31 = system: UO-31
UACC-257 = system: UACC-257
A498 = system: A498
U-251 = system: U-251
NCI-H522 = system: NCI-H522
T47D = system: T47D
HOP-92 = system: HOP-92
SF-295 = system: SF-295
KM12 = system: KM12
A549 = system: A549
NCI/ADR-RES = system: NCI/ADR-RES
MDA-MB-231 = system: MDA-MB-231

Row | Compound | GI50 (OVCAR-3) | GI50 (OVCAR-8) | GI50 (CAKI-1) | GI50 (EKVX) | GI50 (786-0) | GI50 (K562) | GI50 (OVCAR-5) | GI50 (LOX IMVI) | GI50 (UO-31) | GI50 (UACC-257) | GI50 (A498) | GI50 (U-251) | GI50 (NCI-H522) | GI50 (T47D) | GI50 (HOP-92) | GI50 (SF-295) | GI50 (KM12) | GI50 (A549) | GI50 (NCI/ADR-RES) | GI50 (MDA-MB-231)
1 | CCCCCC(O)C(O)CCC[C@H](O)[C@H]1CC[C@H]([C@H]2CC[C@H]([C@H](O)CCCCCCCCCCCCC3=C[C@H](C)OC3=O)O2)O1 (stereo not given in full) | 2.47 µM (inactive) | 2.99 µM (inactive) | 5.07 µM (inactive) | 2.62 µM (inactive) | 3.84 µM (inactive) | 1.38 µM (inactive) | 15.7 µM (inactive) | 1.21 µM (inactive) | 1.85 µM (inactive) | 0.597 µM (active) | 2.65 µM (inactive) | 3.73 µM (inactive) | 4.88 µM (inactive) | 7.19 µM (inactive) | 23.4 µM (inactive) | 1.97 µM (inactive) | 2.21 µM (inactive) | 2.21 µM (inactive) | 0.853 µM (active) | 4.32 µM (inactive)
2 | O=C(Nc1ccc2ncccc2c1)Nc1ccc2ncccc2c1 | > 100 µM (inactive) | > 100 µM (inactive) | > 100 µM (inactive) | > 100 µM (inactive) | > 100 µM (inactive) | > 100 µM (inactive) | > 100 µM (inactive) | > 100 µM (inactive) | > 100 µM (inactive) | > 100 µM (inactive) | > 100 µM (inactive) | > 100 µM (inactive) | > 100 µM (inactive) | > 100 µM (inactive) | > 100 µM (inactive) | > 100 µM (inactive) | > 100 µM (inactive) | > 100 µM (inactive) | > 100 µM (inactive) | > 100 µM (inactive)
3 | CCC(C)C(N)C(=O)N/N=C\c1c2c(nc3ccccc13)-c1cc3c(c(=O)n1C2)COC(=O)[C@]3(O)CC (stereo not given in full) | 0.879 µM (active) | 0.0453 µM (active) | 0.0397 µM (active) | 1.89 µM (inactive) | 0.0361 µM (active) | 0.063 µM (active) | 1.52 µM (inactive) | 0.0132 µM (active) | 0.12 µM (active) | 0.467 µM (active) | 0.205 µM (active) | < 0.01 µM (active) | < 0.048 µM (active) | < 0.01 µM (active) | 0.0803 µM (active) | 0.043 µM (active) | 0.925 µM (active) | 0.173 µM (active) | 0.232 µM (active) | 2.37 µM (inactive)
4 | CN(C)C(=S)SCC(=O)Nc1ccccc1 | > 100 µM (inactive) | > 100 µM (inactive) | > 100 µM (inactive) | > 100 µM (inactive) | > 100 µM (inactive) | > 100 µM (inactive) | > 100 µM (inactive) | > 100 µM (inactive) | > 100 µM (inactive) | > 100 µM (inactive) | > 100 µM (inactive) | > 100 µM (inactive) | 57.9 µM (inactive) | > 100 µM (inactive) | > 100 µM (inactive) | > 100 µM (inactive) | > 100 µM (inactive) | > 100 µM (inactive) | > 100 µM (inactive) | > 100 µM (inactive)
